# Assay: Ability of surfactants to wet ziprasidone HCl monohydrate in water (drug wetting time)
# Type: physicochemical
# Method: Different surfactants were tested for their ability to wet ziprasidone HCl monohydrate in water: sodium lauryl sulfate (SLS), MIGLYOL® (registered trademark of Dynamit Nobel Aktiengesellschaft, Germany) Triglyceride (810), and polysorbate-80. In three separate 100 mL volumes of water, each surfactant listed above was added in an amount to make a 1% solution. MIGLYOL® was added in excess due to its low solubility. While stirring at 200 rpm with an overhead stirrer, to each of the three surfactant solutions was added 1.132 g of ziprasidone […] (equivalent to 10 mgA/ml).
smiles,measurement,setting,value
"CCCCCCCCCCCCOS(=O)(=O)[O-].[Na+] [SLS, sodium lauryl sulfate]",observed rate of wetting,"1% surfactant solution in 100 mL water (MIGLYOL in excess), 1.132 g ziprasidone (10 mgA/ml), stirring at 200 rpm",>20 min
same,foaming during wetting (in words),wetting agents tested with ziprasidone hydrochloride in water,caused foaming before adequate wetting could be obtained

# Reference: patent publication US7175855B1, “Ziprasidone suspension” (Pfizer Inc., priority 1999, dated 2007)
